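Protocol summary: plate cells (96-well), add compound at 5 concentrations, incubate 48 h, interpolate endpoints linearly. Abbreviation: GI50, concentration required for 50% inhibition of growth.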 Calls of active or inactive are those of the source. Cut-off read from the data, not from the text of the source: active = GI50 up to about 1.1 µM and inactive = higher.
Legend:
Experiment in all cases: NCI tumour cell line growth inhibition, 48 h
[1] = test system: 786-0
[2] = test system: A498
[3] = test system: CAKI-1
[4] = test system: CCRF-CEM
[5] = test system: COLO 205
[6] = test system: DLD-1
[7] = test system: DMS-114
[8] = test system: DMS-273
[9] = test system: HCC 2998
[10] = test system: HCT-116
[11] = test system: HL-60
[12] = test system: HOP-62
[13] = test system: HOP-92
[14] = test system: IGROV-1
[15] = test system: K562
[16] = test system: LXFL 529
[17] = test system: M14
[18] = test system: M19-MEL
[19] = test system: MOLT-4
[20] = test system: Malme-3M
[21] = test system: NCI-H226
[22] = test system: NCI-H23
[23] = test system: NCI-H460
[24] = test system: NCI-H522
[25] = test system: OVCAR-4
[26] = test system: RPMI-8226
[27] = test system: SF-268
[28] = test system: SF-539
[29] = test system: SK-MEL-28
[30] = test system: SK-MEL-2
[31] = test system: SK-OV-3
[32] = test system: SN12C
[33] = test system: SNB-75
[34] = test system: SNB-78
[35] = test system: SR
[36] = test system: UACC-62
[37] = test system: UO-31
[38] = test system: XF498
[39] = test system: A549
[40] = test system: ACHN
[41] = test system: EKVX
[42] = test system: HCT-15
[43] = test system: HT-29
[44] = test system: KM12
[45] = test system: OVCAR-3
[46] = test system: OVCAR-5
[47] = test system: OVCAR-8
[48] = test system: RXF 393
[49] = test system: SF-295
[50] = test system: SK-MEL-5
[51] = test system: SNB-19
[52] = test system: SW-620
[53] = test system: TK-10
[54] = test system: U-251
[55] = test system: UACC-257

With `Cc1[nH]c(=O)nc(N/N=C/c2ccc(O)cc2)c1C(=O)Nc1ccc(O)cc1` the GI50 [1] was > 100 µM (inactive), the GI50 [2] was > 100 µM (inactive) and the GI50 [3] was > 100 µM (inactive). The GI50 [4] was > 100 µM (inactive), the GI50 [5] was > 100 µM (inactive) and the GI50 [6] was > 100 µM (inactive). For the same molecule, the GI50 [7] was > 100 µM (inactive), the GI50 [8] was > 100 µM (inactive) and the GI50 [9] was > 100 µM (inactive). For the same molecule, the GI50 [10] was > 100 µM (inactive), the GI50 [11] was > 100 µM (inactive) and the GI50 [12] was > 100 µM (inactive). The GI50 [13] was > 100 µM (inactive), the GI50 [14] was > 100 µM (inactive) and the GI50 [15] was > 100 µM (inactive). For the same molecule, the GI50 [16] was > 100 µM (inactive), the GI50 [17] was > 100 µM (inactive) and the GI50 [18] was > 100 µM (inactive). The GI50 [19] was > 100 µM (inactive), the GI50 [20] was > 100 µM (inactive) and the GI50 [21] was > 100 µM (inactive). For the same molecule, the GI50 [22] was > 100 µM (inactive), the GI50 [23] was > 100 µM (inactive) and the GI50 [24] was > 100 µM (inactive). For the same molecule, the GI50 [25] was > 100 µM (inactive), the GI50 [26] was > 100 µM (inactive) and the GI50 [27] was > 100 µM (inactive). The GI50 [28] was > 100 µM (inactive), the GI50 [29] was > 100 µM (inactive) and the GI50 [30] was > 100 µM (inactive). The GI50 [31] was > 100 µM (inactive), the GI50 [32] was > 100 µM (inactive) and the GI50 [33] was > 100 µM (inactive). For the same molecule, the GI50 [34] was 72.8 µM (inactive), the GI50 [35] was > 100 µM (inactive) and the GI50 [36] was > 100 µM (inactive). For the same molecule, the GI50 [37] was > 100 µM (inactive) and the GI50 [38] was > 100 µM (inactive).
In the case of `CCOC(=O)C1CCCCN1C(=O)OCc1ccccc1` (configuration not stated), the GI50 [1] is reported as > 100 µM (inactive), the GI50 [2] is reported as > 100 µM (inactive) and the GI50 [39] is reported as > 100 µM (inactive). For the same molecule, the GI50 [40] was > 100 µM (inactive), the GI50 [3] was > 100 µM (inactive) and the GI50 [4] was > 100 µM (inactive). The GI50 [6] was > 100 µM (inactive), the GI50 [7] was 97.7 µM (inactive) and the GI50 [8] was > 100 µM (inactive). For the same molecule, the GI50 [41] was > 100 µM (inactive), the GI50 [10] was > 100 µM (inactive) and the GI50 [42] was greater than 100 µM. The GI50 [11] was 41 µM (inactive), the GI50 [12] was > 100 µM (inactive) and the GI50 [43] was > 100 µM (inactive). For the same molecule, the GI50 [15] was > 100 µM (inactive), the GI50 [44] was > 100 µM (inactive) and the GI50 [16] was > 100 µM (inactive). For the same molecule, the GI50 [17] was > 100 µM (inactive), the GI50 [18] was > 100 µM (inactive) and the GI50 [19] was > 100 µM (inactive). The GI50 [21] was 27.3 µM (inactive), the GI50 [22] was 78.3 µM (inactive) and the GI50 [23] was > 100 µM (inactive). The GI50 [24] was > 100 µM (inactive), the GI50 [45] was > 100 µM (inactive) and the GI50 [25] was > 100 µM (inactive). For the same molecule, the GI50 [46] was > 100 µM (inactive), the GI50 [47] was > 100 µM (inactive) and the GI50 [48] was > 100 µM (inactive). For the same molecule, the GI50 [27] was > 100 µM (inactive), the GI50 [49] was > 100 µM (inactive) and the GI50 [28] was > 100 µM (inactive). The GI50 [29] was > 100 µM (inactive), the GI50 [30] was > 100 µM (inactive) and the GI50 [50] was > 100 µM (inactive). For the same molecule, the GI50 [31] was > 100 µM (inactive), the GI50 [32] was > 100 µM (inactive) and the GI50 [51] was > 100 µM (inactive). The GI50 [33] was > 100 µM (inactive), the GI50 [34] was > 100 µM (inactive) and the GI50 [35] was > 100 µM (inactive). For the same molecule, the GI50 [52] was > 100 µM (inactive), the GI50 [53] was > 100 µM (inactive) and the GI50 [54] was 86.1 µM (inactive). For the same molecule, the GI50 [55] was > 100 µM (inactive), the GI50 [36] was > 100 µM (inactive) and the GI50 [37] was 99.8 µM (inactive). For the same molecule, the GI50 [38] was 14.2 µM (inactive).

From ChEMBL document CHEMBL1201862, “PubChem BioAssay data set” (2004)
